Here are results for six molecules from patent publication US20140121273A1, “METHOD FOR TREATMENT OF MAGNESIUM AND POTASSIUM DEFICIENCIES” (priority 2005, published 2014).

Read-outs that look alike come from different tables or passages of the source.

The conditions of series [1]: oral magnesium salts currently used to treat magnesium deficiencies; cited from earlier work.
Series [2] relates to people taking dofetilide or sotalol therapy. In words: 12-lead electrocardiogram intervals, randomized, double blind, placebo-controlled study of oral magnesium L-lactate. It is filed as in vivo, human. Particulars: for QTc Interval 3 Hour / QTc Interval 51 Hour / QTc Baseline: Bazett's formula; for QTc interval reduction: all magnesium-treated patients on sotalol or dofetilide; for QT interval reduction: magnesium therapy. Here is the method:
(§1) A randomized, double blind, placebo-controlled study was performed at Hartford Hospital. People taking dofetilide or sotalol therapy for at least 5 half-lives were eligible for inclusion. […] After enrollment, people who discontinued their sotalol or dofetilide or altered their dosage of these drugs were excluded as well. Thirty-four participants were enrolled in the study. Three were subsequently excluded because the antiarrhythmics they were using were discontinued or the dose of the antiarrhythmics changed during the study. Given the known baseline differences in QTc intervals among men and women, each gender was randomized separately using stratified allocation. Patients completing the study (n=30) were well matched for baseline characteristics, which are reflected in Table 1. Intracellular concentrations of essential elements were available for 19 subjects. Overall 63.2% of patients (regardless of experimental group) had baseline intracellular magnesium concentrations below the normal reference range of 33.9-41.9 mEq/IU with an average level of 32.6±2.2 mEq/IU. All of the other baseline intracellular elements evaluated (phosphorus, chloride, calcium, potassium, and sodium) were within the reference range although the phosphorus was at the top of the range (average=16.7±2.8 mEq/IU with reference range of 14.2-17.0 mEq/IU).
(§2) Participants received three tablets of magnesium L-lactate (Mag-Tab SR®; Niche Pharmaceuticals; Roanoke, Tex.) or matching placebo twice daily (504 mg of elemental magnesium daily) for 48 hours (i.e. t=0, 12 h, 24 h, 36 h, and 48 h). A 12-lead electrocardiogram (ECG) was recorded at 25 mm/sec at rest prior to initiation of treatment (i.e. baseline) and at 3 and 51 hours after the first dose of magnesium (i.e. t=3 h and t=51 h) for each participant. A single blinded investigator read all ECGs using a precision ruler of 0.5 mm scale (Schlaedler-Quinzel, Inc. Parsippany, N.J.).
QT intervals were measured from the onset of the Q wave (or R/S wave if there was no Q wave) to the end of the T wave where it merges with the isoelectric baseline. The beginning and end of the QRS complex were determined by visual inspection, whereas the end of the T-wave was obtained by extrapolating the descending slope of the T-wave to the isoelectric baseline. When au wave interrupts the down sloping of the T-wave, the visible portion of the T wave was extrapolated to the T-P baseline to define the end of the T-wave. The R-R interval was measured from the peak of one R wave to the peak of an adjacent R wave. The QTc interval was corrected for heart rate using Bazett's formula [QTc=QT/(RR)^1/2].
(§3) Continuous data was expressed by a mean±SD. A p value less than 0.05 was considered statistically significant. The primary analysis was the intergroup comparisons of the change in QTc interval from baseline at 3 hours and 51 hours using Bazett's formula. Evaluations of the QRS, QT, and RR intervals were compared between groups at each time period as well. Mann-Whitney tests were used for all statistical analyses of continuous ECG data. Intracellular element intragroup comparisons were performed with a paired t-test. Chi^2 or Fischer's Exact tests were used for categorical comparisons. Statistical analysis was performed using SPSS version 5.

Series [3] in a line: Adverse events in the placebo-controlled study. It is filed as in vivo, human. Particulars: among the 34 patients in the study; one withdrew (diarrhea 30 minutes after dosing). Here is the method:
as §1, with “Patients completing the study (n=30) were well matched for baseline characteristics, which are reflected in Table 1. Intracellular concentrations of essential elements were available for 19 subjects. Overall 63.2% of patients (regardless of experimental group) had baseline intracellular magnesium concentrations below the normal reference range of 33.9-41.9 mEq/IU with an average level of 32.6±2.2 mEq/IU.” left out
Participants received three tablets of magnesium L-lactate (Mag-Tab SR®; Niche Pharmaceuticals; Roanoke, Tex.) or matching placebo twice daily (504 mg of elemental magnesium daily) for 48 hours (i.e. t=0, 12 h, 24 h, 36 h, and 48 h). A 12-lead electrocardiogram (ECG) was recorded at 25 mm/sec at rest prior to initiation of treatment (i.e. baseline) and at 3 and 51 hours after the first dose of magnesium (i.e. t=3 h and t=51 h) for each participant. […]

A short description of series [4]: Intracellular elemental concentrations in sublingual buccal smears (EXAtest, energy-dispersive X-ray analysis), same study. In kind it is in vivo, human. Particulars: for Intracellular magnesium concentration, Baseline: before study therapy; for Intracellular magnesium concentration, Baseline / Intracellular magnesium concentration, Post-Dosing: buccal cells, magnesium group n = 10, normal reference range 33.9-41.9, mean ± SD; for Intracellular magnesium concentration, Post-Dosing: following the third dose. Here is the method: as §1, §2
Sublingual buccal smears were obtained from a subgroup of participants prior to initiation of study therapy and following the third dose of magnesium using EXAtest™ kits (Intracellular Diagnostics, Inc.; Foster City, Calif.). Samples were analyzed by energy-dispersive X-ray Analysis for intracellular concentrations of magnesium, phosphorus, chloride, calcium, potassium, and sodium. The use of buccal cell smears for intracellular magnesium was performed because it is noninvasive, reproducible, and correlates well (r=0.68, p<0.002) with atrial cell intracellular magnesium.
as §3

Series [5] relates to patients with atrial fibrillation. Particulars: oral, two 6-month studies; cited from earlier work.
The conditions of series [6]: cited from earlier work.
[7] abbreviates: 3 hours after first dose, 504 mg elemental magnesium daily, oral, n = 14, mean ± SD.
Setting [8] is: 51 hours after first dose, 504 mg elemental magnesium daily for 48 hours, oral, n = 14, mean ± SD.
Setting [9] is: baseline, before first dose, magnesium group n = 14, on sotalol or dofetilide, mean ± SD.

For the molecule `[Cl-].[Cl-].[Mg+2]` [magnesium chloride], in series [1], the bioavailability result was “about 20%”.

With `C[C@H](O)C(=O)[O-].C[C@H](O)C(=O)[O-].[Mg+2]` [magnesium L-lactate], the “QT Interval 3 Hour” value in series [2] (setting [7]) came to 115300 ± 11100 µM·h. The “RR Interval 3 Hour” value in series [2] (setting [7]) stood at 230400 ± 30860 µM·h. Besides, the “QTc Interval 3 Hour” value in series [2] (setting [7]) was 121100 ± 17700 µM·h; in series [2] (3 hours after first dose, 504 mg elemental magnesium daily, oral, n = 14, mean ± SD, listed as Magnesium), 121100 ± 17700 µM·h. In addition, the “QRS Interval 3 Hour” value in series [2] (3 hours after first dose, three tablets twice daily (504 mg elemental magnesium daily), oral, n = 14, mean ± SD) worked out at 39890 ± 11600 µM·h. For the same molecule, the QTc interval reduction was determined as 37 ms in series [2] (3 hours post-dosing) and 25 ms in series [2] (51 hours). Moreover, the “QTc interval reduction from baseline” value in series [2] (3 hours, group receiving diuretics, mean ± SD) amounted to 51.1 ± 42 ms; in series [2] (3 hours, no diuretic group, mean ± SD), 25.5 ± 27.9 ms; in series [2] (51 hours, group receiving diuretics, mean ± SD) it was 24.7 ± 24.3 ms; in series [2] (51 hours, no diuretic group, mean ± SD), 26.2 ± 27.4 ms. Besides, the QT interval reduction entry in series [2] (3 hours) is listed as “isms”; in series [2] (51 hours), 14 ms. Moreover, the “QT Interval 51 Hour” value in series [2] (setting [8]) was 115800 ± 12400 µM·h. In series [2] (setting [8]), the “RR Interval 51 Hour” value stood at 241200 ± 32670 µM·h. Besides, the “QTc Interval 51 Hour” value in series [2] (setting [8]) came to 124800 ± 14300 µM·h; in series [2] (51 hours after first dose, 504 mg elemental magnesium daily for 48 hours, oral, n = 14, mean ± SD, listed as Magnesium), 124800 ± 14300 µM·h. The “QRS Interval 51 Hour” value in series [2] (51 hours after first dose, three tablets twice daily for 48 hours (504 mg elemental magnesium daily), oral, n = 14, mean ± SD) came to 36190 ± 12200 µM·h. Also, the “QTc Baseline” value stood at 131200 ± 15000 µM·h in series [2] (setting [9]) and 131200 ± 15000 µM·h in series [2] (baseline, before first dose, magnesium group n = 14, on sotalol or dofetilide, mean ± SD, listed as Magnesium). In series [2] (setting [9]), the “QT Interval Baseline” value is 119600 ± 10600 µM·h. For the same molecule, in series [2] (setting [9]), the “RR Interval Baseline” value came out at 235600 ± 45530 µM·h. For the same molecule, the “patients who experienced loose bowel movements” value in series [3] was determined as 2 patients. Besides, in series [4] (all such patients, normal reference range 33.9-41.9 mEq/IU), the “intracellular magnesium of patients with baseline concentrations below the normal reference range, after magnesium supplementation” value is on record as “achieving a concentration within the normal reference range”. The “Intracellular magnesium concentration, Baseline” value in series [4] is given as 32.6±2.2 mEq/IU; in series [4] (listed as Magnesium), 32.2 ± 2.2 mEq/IU. Further, the figures for the “Intracellular magnesium concentration, Post-Dosing” value in series [4] and in series [4] (listed as Magnesium) were 36.2±2.4 mEq/IU and 36.2 ± 2.4 mEq/IU, respectively. Moreover, the “effective in repleting intracellular magnesium levels to normal ranges” value in series [4] (normal range defined as a minimum concentration of 33.9 mEq/IU) is reported as 100%.

On to `[Mg+2].[OH-].[OH-]` [magnesium hydroxide], for which the maintaining sinus rhythm entry in series [5] was “ineffective at maintaining sinus rhythm”.

As to `O=S(=O)([O-])[O-].[Mg+2]` [magnesium sulfate], the conversion rate in series [6] (trial of intravenous magnesium sulfate versus diltiazem, p=0.03) is 57%; in series [6] (trial of intravenous magnesium sulfate versus verapamil, p=0.01), 58%.

On to `[O]=[Mg]` [magnesium oxide], for which the bioavailability result in series [1] is recorded as “about 2%”.

As for magnesium gluconate, the bioavailability entry in series [1] is given as “about 20%”.
